Among the data in PubChem BioAssay AID256 (DTP/NCI, 2004) are T/C values, retold here.

Several values for one entry are separate records, joined by “and”; a condition that tells them apart may be missing. Identical values can stand only once. Toxic doses and inconclusive results are not listed.

For the test, the system named is CD2F1 mice, L1210 leukemia ip, survival T/C. Kind of test: NCI In Vivo Anticancer Drug Screen. Data for tumor model L1210 Leukemia (intraperitoneal) in CD2F1 (CDF1) mice. The following applies: higher = longer survival. Put shortly:
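Compound-dosed mice with transplantable tumor versus matched vehicle controls; endpoint ratio T/C reported.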

`CN(C)CCN1C(=O)c2cccc3cc(N)cc(c23)C1=O`: the T/C (endpoint: mean survival time, dose: 1.0 mg/kg/injection, schedule: Q01DX009 (ip), vehicle: saline with Tween-80) was 92 % of control and 104 % of control; the T/C (endpoint: mean survival time, dose: 2.0 mg/kg/injection, schedule: Q01DX009 (ip), vehicle: saline with Tween-80) was 101 % of control and 102 % of control; the T/C (endpoint: mean survival time, dose: 4.0 mg/kg/injection, schedule: Q01DX009 (ip), vehicle: saline with Tween-80) is 107 % of control and 108 % of control; the T/C (endpoint: mean survival time, dose: 16.0 mg/kg/injection, schedule: Q01DX009 (ip), vehicle: saline with Tween-80) is 175 % of control and 197 % of control; the T/C (endpoint: mean survival time, dose: 32.0 mg/kg/injection, schedule: Q01DX009 (ip), vehicle: saline with Tween-80) was 89 % of control and 96 % of control; the T/C (endpoint: median survival time, dose: 1.0 mg/kg/injection, schedule: Q01DX009 (ip), vehicle: acid diluted with saline) was 99 % of control. Further, the T/C (endpoint: median survival time, dose: 1.2 mg/kg/injection, schedule: Q03HX024 (ip), vehicle: water) was 113 % of control; the T/C (endpoint: median survival time, dose: 1.8 mg/kg/injection, schedule: Q03HX024 (ip), vehicle: water) was 117 % of control; the T/C (endpoint: median survival time, dose: 2.0 mg/kg/injection, schedule: Q01DX009 (ip), vehicle: acid diluted with saline) was 97 % of control and 107 % of control; the T/C (endpoint: median survival time, dose: 2.0 mg/kg/injection, schedule: Q01DX009 (ip), vehicle: saline with Tween-80) was 105 % of control; the T/C (endpoint: median survival time, dose: 2.7 mg/kg/injection, schedule: Q03HX024 (ip), vehicle: water) is 115 % of control; the T/C (endpoint: median survival time, dose: 2.9 mg/kg/injection, schedule: Q01DX005 (iv), vehicle: water) is 108 % of control. The T/C (endpoint: median survival time, dose: 3.2 mg/kg/injection, schedule: Q01DX009 (ip), vehicle: saline) is 118 % of control; the T/C (endpoint: median survival time, dose: 3.2 mg/kg/injection, schedule: Q01DX009 (ip), vehicle: water) was 105 % of control; the T/C (endpoint: median survival time, dose: 3.65 mg/kg/injection, schedule: Q03HX008 (ip), vehicle: water) is 118 % of control; the T/C (endpoint: median survival time, dose: 4.0 mg/kg/injection, schedule: Q01DX009 (ip), vehicle: acid diluted with saline) is 113 % of control and 99 % of control; the T/C (endpoint: median survival time, dose: 4.0 mg/kg/injection, schedule: Q01DX009 (ip), vehicle: saline with Tween-80) was 116 % of control; the T/C (endpoint: median survival time, dose: 4.35 mg/kg/injection, schedule: Q01DX005 (iv), vehicle: water) was 105 % of control. In addition, the T/C is 124 % of control (endpoint: median survival time, dose: 4.7 mg/kg/injection, schedule: Q01DX009 (ip), vehicle: water); 113 % of control (endpoint: median survival time, dose: 5.0 mg/kg/injection, schedule: Q01DX009 (ip), vehicle: acid diluted with saline); 120 % of control (endpoint: median survival time, dose: 5.44 mg/kg/injection, schedule: Q03HX008 (ip), vehicle: water); 117 % of control (endpoint: median survival time, dose: 5.76 mg/kg/injection, schedule: Q01DX005 (ip), vehicle: water); 154 % of control (endpoint: median survival time, dose: 6.03 mg/kg/injection, schedule: Q03HX024 (ip), vehicle: water); 105 % of control (endpoint: median survival time, dose: 6.5 mg/kg/injection, schedule: Q01DX005 (iv), vehicle: saline with Tween-80). Moreover, the T/C runs as follows: (endpoint: median survival time, dose: 6.5 mg/kg/injection, schedule: Q01DX005 (iv), vehicle: water) 113 % of control; (endpoint: median survival time, dose: 7.0 mg/kg/injection, schedule: Q01DX009 (ip), vehicle: acid diluted with saline) 114 % of control; (endpoint: median survival time, dose: 7.1 mg/kg/injection, schedule: Q01DX009 (ip), vehicle: saline with Tween-80) 123 % of control; (endpoint: median survival time, dose: 8.0 mg/kg/injection, schedule: Q01DX009 (ip), vehicle: acid diluted with saline) 118 % of control; (endpoint: median survival time, dose: 8.46 mg/kg/injection, schedule: Q01DX005 (ip), vehicle: saline with Tween-80) 114 % of control; (endpoint: median survival time, dose: 8.46 mg/kg/injection, schedule: Q01DX005 (ip), vehicle: water) 120 % of control. In addition, the T/C is 209 % of control (endpoint: median survival time, dose: 9.0 mg/kg/injection, schedule: Q03HX024 (ip), vehicle: water); 114 % of control (endpoint: median survival time, dose: 9.7 mg/kg/injection, schedule: Q01DX005 (iv), vehicle: saline with Tween-80); 120 % of control (endpoint: median survival time, dose: 9.7 mg/kg/injection, schedule: Q01DX005 (iv), vehicle: water); 120 % of control (endpoint: median survival time, dose: 9.7 mg/kg/injection, schedule: Q04DX003 (ip), vehicle: water); 117 % of control (endpoint: median survival time, dose: 10.0 mg/kg/injection, schedule: Q01DX009 (ip), vehicle: acid diluted with saline); 165 % of control (endpoint: median survival time, dose: 10.7 mg/kg/injection, schedule: Q01DX009 (ip), vehicle: saline). Also, the T/C is 150 % of control and 167 % of control (endpoint: median survival time, dose: 11.0 mg/kg/injection, schedule: Q01DX009 (ip), vehicle: saline with Tween-80); 174 % of control (endpoint: median survival time, dose: 12.1 mg/kg/injection, schedule: Q03HX008 (ip), vehicle: water); 103 % of control (endpoint: median survival time, dose: 13.4 mg/kg/injection, schedule: Q03HX024 (ip), vehicle: water); 120 % of control (endpoint: median survival time, dose: 14.5 mg/kg/injection, schedule: Q04DX003 (ip), vehicle: water); 112 % of control (endpoint: median survival time, dose: 14.6 mg/kg/injection, schedule: Q01DX001 (iv), vehicle: water); 175 % of control and 217 % of control and 112 % of control (endpoint: median survival time, dose: 16.0 mg/kg/injection, schedule: Q01DX009 (ip), vehicle: acid diluted with saline). The T/C was 206 % of control (endpoint: median survival time, dose: 16.0 mg/kg/injection, schedule: Q01DX009 (ip), vehicle: saline); 187 % of control (endpoint: median survival time, dose: 16.0 mg/kg/injection, schedule: Q01DX009 (ip), vehicle: water); 158 % of control (endpoint: median survival time, dose: 19.3 mg/kg/injection, schedule: Q01DX005 (ip), vehicle: saline with Tween-80); 183 % of control (endpoint: median survival time, dose: 19.3 mg/kg/injection, schedule: Q01DX005 (ip), vehicle: water); 162 % of control (endpoint: median survival time, dose: 21.6 mg/kg/injection, schedule: Q01DX005 (iv), vehicle: saline with Tween-80); 182 % of control (endpoint: median survival time, dose: 21.6 mg/kg/injection, schedule: Q01DX005 (iv), vehicle: water). In addition, the T/C is 113 % of control (endpoint: median survival time, dose: 21.8 mg/kg/injection, schedule: Q01DX001 (iv), vehicle: water); 158 % of control and 163 % of control (endpoint: median survival time, dose: 24.0 mg/kg/injection, schedule: Q01DX009 (ip), vehicle: saline with Tween-80); 118 % of control (endpoint: median survival time, dose: 24.0 mg/kg/injection, schedule: Q01DX009 (ip), vehicle: saline); 117 % of control (endpoint: median survival time, dose: 24.0 mg/kg/injection, schedule: Q01DX009 (ip), vehicle: water); 120 % of control (endpoint: median survival time, dose: 28.8 mg/kg/injection, schedule: Q01DX001 (ip), vehicle: water); 187 % of control (endpoint: median survival time, dose: 28.8 mg/kg/injection, schedule: Q01DX005 (ip), vehicle: saline with Tween-80). The T/C by setting is: (endpoint: median survival time, dose: 28.8 mg/kg/injection, schedule: Q01DX005 (ip), vehicle: water) 195 % of control; (endpoint: median survival time, dose: 28.9 mg/kg/injection, schedule: Q01DX009 (oral), vehicle: water) 174 % of control; (endpoint: median survival time, dose: 32.0 mg/kg/injection, schedule: Q01DX009 (ip), vehicle: acid diluted with saline) 95 % of control; (endpoint: median survival time, dose: 32.0 mg/kg/injection, schedule: Q01DX009 (ip), vehicle: saline with Tween-80) 90 % of control and 108 % of control; (endpoint: median survival time, dose: 32.2 mg/kg/injection, schedule: Q01DX005 (iv), vehicle: saline with Tween-80) 96 % of control; (endpoint: median survival time, dose: 32.3 mg/kg/injection, schedule: Q04DX003 (ip), vehicle: water) 196 % of control. Moreover, the T/C (endpoint: median survival time, dose: 36.0 mg/kg/injection, schedule: Q01DX009 (ip), vehicle: saline) was 93 % of control; the T/C (endpoint: median survival time, dose: 43.1 mg/kg/injection, schedule: Q01DX009 (oral), vehicle: water) is 108 % of control; the T/C (endpoint: median survival time, dose: 43.2 mg/kg/injection, schedule: Q01DX005 (ip), vehicle: saline with Tween-80) is 95 % of control; the T/C (endpoint: median survival time, dose: 48.3 mg/kg/injection, schedule: Q04DX003 (ip), vehicle: water) is 244 % of control; the T/C (endpoint: median survival time, dose: 72.0 mg/kg/injection, schedule: Q04DX003 (ip), vehicle: water) is 108 % of control.

Consider `O=C(CBr)Nc1c2c(nc3ccccc13)CCCC2`, for which the T/C runs as follows: (endpoint: mean survival time, dose: 75.0 mg/kg/injection, schedule: Q01DX001 (ip), vehicle: saline with Tween-80) 101 % of control; (endpoint: mean survival time, dose: 150.0 mg/kg/injection, schedule: Q01DX001 (ip), vehicle: saline with Tween-80) 104 % of control; (endpoint: mean survival time, dose: 300.0 mg/kg/injection, schedule: Q01DX001 (ip), vehicle: saline with Tween-80) 94 % of control.

On to `CC(Cl)CN(CC(C)Cl)c1ccc2c(c1)Cc1cc([N+](=O)[O-])ccc1-2` (stereo unspecified), for which the T/C is 93 % of control (endpoint: mean survival time, dose: 100.0 mg/kg/injection, schedule: Q04DX003 (ip), vehicle: saline with Tween-80); 96 % of control (endpoint: mean survival time, dose: 200.0 mg/kg/injection, schedule: Q04DX003 (ip), vehicle: saline with Tween-80); 96 % of control (endpoint: mean survival time, dose: 400.0 mg/kg/injection, schedule: Q04DX003 (ip), vehicle: saline with Tween-80).
